Measured values from patent US11596615B2, “Compositions and methods for treatment of insulin resistance” (Temple University—Of The Commonwealth System Of Higher …, priority 2016, dated 2023).
Where a name gives a salt, the structure may show the parent alone.

Assays:
3T3-L1 adipocytes [1] = assay: Effect of 4-HNE and H2O2 on insulin-induced glucose uptake by 3T3-L1 adipocytes; format: cell-based, mouse; details: 500 μM for 4 hour, then 100 nM insulin 60 minutes; FIG. 2
Description: 3T3-L1 adipocytes (1×10^6) were treated with either 500 μM of 4-HNE or H2O2 or combination of both for 4 hour and were then stimulated with 100 nM insulin for 60 minutes. The glucose uptake was measured by a specific MRM method.

GLUT4 = GLUT4 carbonylation (K264-HNE adduct) in 3T3-L1 cells overexpressing GLUT4, MRM; format: cell-based; details: 20 μM for 4 hour, FIG. 1A-1B
Description: A GLUT4-SNAP fusion construct was generated. 3T3-L1 adipocytes were then retrovirally transduced with the construct to overexpress the GLUT4-SNAP protein. Twenty-four hours after the transduction, the cells were treated with and without 20 μM of 4-HNE for an additional 4 hours. This 4-HNE dose was chosen because it was similar to the physiological levels and was non-toxic. In order to identify and quantitate GLUT4 carbonylation (K264 NHE-adduct or R265 and R246 glutamic semialdehyde adducts), a mass spectroscopy-based multiple reaction monitoring (MRM) method was developed and validated.

3T3-L1 adipocytes [2] = assay: Restoring glucose uptake in insulin-stimulated 3T3-L1 cells exposed to 4-HNE and H2O2 (FIG. 13); format: cell-based, mouse; details: 10 μM pretreatment 12 hours, then 4HNE and H2O2 4 hours; for glucose uptake impairment induced by 4-HNE and H2O2: FIG. 13
Description: Insulin-stimulated 3T3-L1 adipocytes were pretreated with the drug (S)-2-amino-6-((3-aminopropyl)amino)hexanoic acid dihydrochloride (10 μM) for 12 hours followed by exposure to 4HNE and H2O2 for an additional 4 hours. The amounts of glucose taken up by the 3T3-L1 adipocytes were measured by the MRM methods described above. The results in FIG. 13 show the effect of the drug in restoring glucose uptake in insulin-stimulated 3T3-L1 cells exposed to 4-HNE and H2O2: Control cells, no insulin (C− No Ins); control cells, with insulin (C+ Ins); 4HNE+H2O2-treated cells (4HNE/H2O2) and cells treated with drug+4HNE+H2O2 (“APL”).
Insulin-stimulated 3T3-L1 adipocytes were pretreated with the drug (S)-2-amino-5-((6-aminohexyl)amino)pentanoic acid dihydrochloride (10 μM) for 12 hours followed by exposure to 4HNE and H2O2 for an additional 4 hours. The amounts of glucose taken up by the 3T3-L1 adipocytes were measured by the MRM methods described above. FIG. 13 includes the results: cells treated with (S)-2-amino-5-((6-aminohexyl)amino)pentanoic acid trihydrochloride (MC-180351).
Insulin-stimulated 3T3-L1 adipocytes were pretreated with the drug (S)-2-amino-5-(([…])amino)pentanoic acid dihydrochloride (10 μM) for 12 hours followed by exposure to 4HNE and H2O2 for an additional 4 hours. The amounts of glucose taken up by the 3T3-L1 adipocytes were measured by the MRM methods described above. FIG. 13 includes the results: cells treated with (S)-2-amino-5-((5-aminopentyl)amino)pentanoic acid trihydrochloride (MC-180352).

Row | SMILES | reduction of glucose uptake (3T3-L1 adipocytes [1]) [%] | formation of K264-HNE GLUT4 adduct (GLUT4) | GLUT4 carbonylations (3T3-L1 adipocytes [2]) | glucose uptake impairment induced by 4-HNE and H2O2 (3T3-L1 adipocytes [2])
1 | CCCCCC(O)/C=C/C=O (stereo not shown) [Example 4-HNE, 4-hydroxynonenal] | 32 | induced the formation of the K264-HNE adduct |  | 
2 | OO [Example H2O2, H2O2] | 66 |  |  | 
3 | NCCCCCCNCCC[C@H](N)C(=O)O [MC-180351, (S)-2-amino-5-((6-aminohexyl)amino)pentanoic acid trihydrochloride] |  |  | reduce GLUT4 carbonylations | prevent glucose uptake impairment induced by 4-HNE and H2O2
4 | NCCCCCNCCC[C@H](N)C(=O)O [MC-180352, (S)-2-amino-5-((5-aminopentyl)amino)pentanoic acid trihydrochloride] |  |  | reduce GLUT4 carbonylations | prevent glucose uptake impairment induced by 4-HNE and H2O2
